Experimental findings from article PMC5398486, “Cheminformatics-aided discovery of small-molecule Protein-Protein Interaction (PPI) dual inhibitors of Tumor Necrosis Factor (TNF) and Receptor Activator of NF-κB Ligand (RANKL)” (PLoS Computational Biology, 2017) are described below.

Each structure is given as a SMILES string. Like-named read-outs stand apart in the source and are kept apart here.

Data set [1] concerns the target T1, TNF (Homo sapiens, UniProt P01375). In words: Cross-linking experiments, TNF trimer formation. The format is biochemical. Details: purchased PeproTech. The conditions noted are these: molar ratio of 4:1 relative to TNF, BS3 cross-linking. The method, then:
(§1) 100 ng of recombinant human TNF or RANKL (Peprotech) were incubated with the inhibitors for 30 min at room temperature and then subjected to cross-linking, using 4.8 mM BS3 (ThermoFisher Scientific) for 30 min at room temperature. The reaction was stopped by adding 1/10th volume of 1 M Tris-HCl, pH 7.5. Samples were then subjected to SDS-PAGE and western blotting using an anti human-TNF or RANKL antibody (both R&D Systems).
(§2) Human TNF or RANKL was incubated with T8 or T23, chemically cross-linked, and subjected to SDS-PAGE. This was followed by western blotting to detect the various TNF and RANKL multimers. Both inhibitors were used at a molar ratio of 4:1 relative to TNF and 1:1 relative to RANKL. Numbers indicate molecular weights in kDa; NC = non cross-linked control (no inhibitor, no cross-linking); CC = cross-linked control (no inhibitor).

Another data set deals with T2, human RANKL (Homo sapiens, UniProt O14788).
T2 construct: purchased Peprotech
T2 sequence (O14788 143-317 limits assumed): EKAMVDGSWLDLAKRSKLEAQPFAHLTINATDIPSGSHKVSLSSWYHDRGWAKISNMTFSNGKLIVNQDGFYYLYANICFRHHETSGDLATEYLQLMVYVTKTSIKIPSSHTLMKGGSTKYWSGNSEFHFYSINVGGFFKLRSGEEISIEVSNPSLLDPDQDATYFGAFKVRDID
In words: Cross-linking experiments, RANKL trimer formation. The format is biochemical. The conditions noted are these: molar ratio of 1:1 relative to RANKL, BS3 cross-linking. As to the method: as §1, §2

Data set [2] has as its target T1, TNF. Briefly: Fluorescence-based binding affinity assay, TNF. Further details: made in house. The conditions noted are these: for 'n' value from Scatchard plot (ligand binding sites per protein molecule): TNF, binding assay raw data. As to the method: For use in the binding assays, recombinant TNF and RANKL were expressed and purified as previously described.[84–86] Fluorescence intensity was measure with a Synergy H1 Multi-Mode Reader (BioTek) in 96-well microplates (black) at 25°C. […] During preparation of the solutions the buffer was firstly added to all wells followed by the ligand solution and finally the protein was added. All solutions were mixed by pipetting and equilibrated for 1h at 25°C before measurement. […] Experiments were performed for TNF in 10 mM citrate-phosphate (pH 6.5) and for RANKL in 25 mM Tris–HCl buffer, 100 mM NaCl (pH 7.5); both buffers were supplemented with PEG3350 at the concentrations indicated in the respective figures. Kd values were calculated as mean ± SEM from three independent experiments.
Differences in fluorescence intensity between the protein/ligand complex and free protein (or free ligand) were analysed as previously described in [Papaneophytou et al. (2013) ACS Med Chem Lett. 4: 137-141] (Eq. S6) in order to determine the dissociation constant (Kd) of the various protein-ligand systems.
In Eq. (S6) Fobs is the observed fluorescence intensity; FBG is the fluorescence background signal; MFLF [picture] and PF are the molar fluorescence and concentration of free protein, respectively; FR is the fluorescence ratio of bound protein (or bound ligand in the case of a fluorescence ligand); LT and PT are the total concentrations of ligand and protein, respectively. A detailed analysis of the development of the fluorescence ligand-binding assay is given in [Papaneophytou et al. (2013) ACS Med Chem Lett. 4: 137-141].

A short description of a further data set: BM viability (MTT assay). The conditions noted are these: primary bone marrow cells, M-CSF 25 ng/mL, read-out: LC50 (RANKL complexes, BM viability). Type of data set: cell-based. As to the method:
BMs were plated on 96-well plates at a density of 10^5 cells/well and treated with T8 and T23 at various concentrations, in the presence of M-CSF (25 ng/mL) for 48 hours. Cell viability was determined by the 3-(4,5-dimethylthiazol-2-yl)-2,5-diphenyltetrazolium bromide (MTT) colorimetric assay, which measures the ability of viable cells to reduce a soluble tetrazolium salt to an insoluble purple formazan precipitate.[63] After removal of the medium, each well was incubated with 0.5 mg/mL MTT (Sigma-Aldrich, St. Louis, MO) in serum-free α-MEM at 37°C for 3 h. At the end of the incubation period, the medium was removed and the intracellular formazan was solubilized with 200 μL DMSO and quantified by reading the absorbance at 550 nm on a microplate reader (Optimax; Molecular Devices, Sunnyvale, CA). Cell viability (%) was expressed as a percentage of the negative control treated without compounds. LC50 values were calculated as mean ± SEM from three independent experiments.

The mark [3] stands for this setting: TNF 0.75 μM, PEG3350 2.5%, 10 mM Citrate-phosphate buffer pH 6.5, read-out: Binding affinity (Kd), TNF.
The mark [4] stands for this setting: TNF 0.75 μM, PEG3350 5%, 10 mM Citrate-phosphate buffer pH 6.5, read-out: Binding affinity (Kd), TNF.
Setting [5] is: TNF 1.5 μM, PEG3350 5%, 10 mM Citrate-phosphate buffer pH 6.5, read-out: Binding affinity (Kd), TNF.
[6] abbreviates: TNF 2.5 μM, PEG3350 5%, 10 mM Citrate-phosphate buffer pH 6.5, read-out: Binding affinity (Kd), TNF.
Setting [7] is: fluorescence assay, 25°C, citrate-phosphate buffer, 5% PEG3350, read-out: Kd (TNF complexes).

T1 sequence (P01375 77-233 limits assumed): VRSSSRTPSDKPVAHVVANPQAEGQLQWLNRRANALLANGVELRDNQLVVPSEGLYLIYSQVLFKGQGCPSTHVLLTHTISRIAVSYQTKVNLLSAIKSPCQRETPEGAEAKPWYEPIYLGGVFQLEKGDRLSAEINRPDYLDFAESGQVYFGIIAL

What is called Kd is the concentration at which binding is half-saturated. Turning to `O=C(NNC(=NS(=O)(=O)c1ccc(-n2nc(C(F)(F)F)cc2-c2cccs2)cc1)N1CCCC1)c1ccc(Cl)cc1` [Compound T8, N-[(4-chlorobenzoyl)amino]-N'-[4-[5-thiophen-2-yl-3-(trifluoromethyl)pyrazol-1-yl]phenyl]sulfonylpyrrolidine-1-carboximidamide], at TNF [1], the “formation of TNF trimers (cross-linking, western blot)” value was “obstruct the formation of active TNF and RANKL trimers”. On human RANKL, the “formation of RANKL trimers (cross-linking, western blot)” value was “obstruct the formation of active TNF and RANKL trimers”. The equilibrium dissociation constant (Kd) stood at 9.55 ± 0.81 µM at TNF [2] (setting [3]); 8.78 ± 0.76 µM on TNF [2] (setting [4]); 9.02 ± 0.88 µM at TNF [2] (setting [5]); 9.17 ± 0.88 µM on TNF [2] (setting [6]); 8.8 ± 0.8 µM at TNF [2] (setting [7]). On TNF [2], the “'n' value from Scatchard plot (ligand binding sites per protein molecule)” value came to 1. Further, in the data set “BM viability (MTT assay)”, the CC50 at 48 h was determined as 42.6 ± 4.3 µM.
Take `COc1cc(OC(C)=O)c(-c2cc(OC(C)=O)c(OC)cc2OC(C)=O)cc1OC(C)=O` [Compound T23, [4-acetyloxy-2-(2,5-diacetyloxy-4-methoxyphenyl)-5-methoxyphenyl] acetate]: on TNF [1], the “formation of TNF trimers (cross-linking, western blot)” value was “obstruct the formation of active TNF and RANKL trimers”. Further, the “formation of RANKL trimers (cross-linking, western blot)” value on human RANKL is “obstruct the formation of active TNF and RANKL trimers”. The equilibrium dissociation constant (Kd) is 2.53 ± 0.23 µM at TNF [2] (TNF 0.75 μM, PEG3350 0%, 10 mM Citrate-phosphate buffer pH 6.5, read-out: Binding affinity (Kd), TNF); 3.02 ± 0.31 µM at TNF [2] (setting [3]); 2.8 ± 0.19 µM on TNF [2] (setting [4]); 2.63 ± 0.25 µM on TNF [2] (setting [5]); 2.98 ± 0.47 µM at TNF [2] (setting [6]); 2.8 ± 0.2 µM at TNF [2] (setting [7]). On TNF [2], the “'n' value from Scatchard plot (ligand binding sites per protein molecule)” value came out at 1. The CC50 at 48 h in the data set “BM viability (MTT assay)” was 5.9 ± 0.3 µM.
